{"source": "patent US20070021501A1", "about": "“Methods of treating epileptogenesis” (priority 2005, published 2007)", "key": {"[1]": {"tested_on": "lithium-pilocarpine model of temporal lobe epilepsy in the rat", "test": "Quantification of cell densities in hippocampus, thalamus and cortex after Li-pilo SE (Example 1)", "type": "in vivo", "settings": "DZP", "experimental": "Quantification of cell densities was performed at 6 days after SE on 8 pilo-DZP, 8 pilo-TC10, 7 pilo-TC30, 7 pilo-TC60, and 6 saline-saline rats.\nCell counts were performed twice in a blind manner and were the average of at least 3 values from 2 adjacent sections in each individual animal. Counts involved only cells larger than 10 μm, smaller ones being considered as glial cells.\nFor the comparison of the characteristics of SE in pilo-saline and pilo-test compound animals, a non-paired Student's t-test was used. The comparison between the number of rats seizing in both groups was performed by means of a Chi square test. For neuronal damage, statistical analysis between groups was performed using ANOVA followed by a Fisher's test for multiple comparisons using the Statview software (Fisher R A, 1946a, Statistical Methods for Research Workers (10th edition) Oliver & Boyd, Edinburgh; Fisher R A, 1946b, The Design of Experiments (4th edition) Oliver & Boyd, Edinburgh) Behavioral and EEG Characteristics of Lithium-pilocarpine Status Epilepticus"}, "[2]": {"tested_on": "lithium-pilocarpine model of temporal lobe epilepsy in the rat", "test": "Mossy fiber sprouting in hippocampus, Timm staining (Example 1)", "type": "in vivo", "settings": "DZP (n=9)", "experimental": "At 2 months after the onset of spontaneous recurrent seizures, mossy fiber sprouting was examined on rats in the chronic period exposed to the test compound or DZP and in 3 saline-saline rats. Animals were deeply anaesthetized and perfused transcardially with saline followed by 100 ml of 1.15% (w/v) Na2S in 0.1 M phosphate buffer, and 100 ml of 4% (v/v) formaldehyde in 0.1 M phosphate buffer. Brains were removed from skull, post-fixed in 4% formaldehyde during 3-5 h and 40 μm sections were cut on a sliding vibratome and mounted on gelatin-coated slides.\nThe following day, sections were developed in the dark in a 26° C. solution of 50% (w/v) arabic gum (160 ml), sodium citrate buffer (30 ml), 5.7% (w/v) hydroquinone (80 ml) and 10% (w/v) silver nitrate (2.5 ml) during 40-45 min. The sections were then rinsed with tap water at 40° C. during at least 45 min, rinsed rapidly with distilled water and allowed to dry. They were dehydrated in ethanol and coverslipped.\nMossy fiber sprouting was evaluated according to criteria previously described in dorsal hippocampus (Cavazos et al., 1991, J Neurosci 11:2795-2803.), which are follows: 0—no granules between the tips and crest of the DG; 1—sparse granules in the supragranular region in a patchy distribution between the tips and crest of DG; 2—more numerous granules in a continuous distribution between the tips and crest of DG; 3—prominent granules in a continuous pattern between tips and crest, with occasional patches of confluent granules between tips and crest; 4—prominent granules that form a confluent dense laminar band between tips and crest and 5—confluent dense laminar band of granules that extends into the inner molecular layer."}, "[3]": {"tested_on": "lithium-pilocarpine status epilepticus in the rat", "test": "EEG patterns during and after Li-pilo SE (Example 1)", "type": "in vivo", "settings": "DZP 2 mg/kg i.m.; cortex and hippocampus", "experimental": "Male Wistar rats weighing 225-250 g, provided by Janvier Breeding Center (Le Genest-St-lste, France) were housed under controlled standard conditions (light/dark cycle, 7.00 a.m.-7.00 p.m. lights on), with food and water available ad libitum. All animal experimentation was performed in accordance with the rules of the European Communities Council Directive of Nov. 24, 1986 (86/609/EEC), and the French Department of Agriculture (License N^o 67-97). For electrode implantation, rats were anesthetized by an i.p. injection of 2.5 mg/kg diazepam (DZP, Valium, Roche, France) and […] ketamine chlorhydrate (Imalgene 1000, Rhone Merrieux, France). Four single-contact recording electrodes were placed on the skull, over the parietal cortex, two on each side.\nThe bilateral EEG cortical activity was recorded during the whole duration of SE and behavioral changes were noted.\nThe effects of the test compound on the EEG and on the latency to occurrence of SRS were investigated by daily video recording of the animals for 10 h per day and the recording of the electrographic activity twice a week for 8 h."}, "[4]": {"tested_on": "lithium-pilocarpine status epilepticus in the rat", "test": "Mortality over the first 48 h after Li-pilo SE (Example 2)", "type": "in vivo, Sprague-Dawley rats", "settings": "DZP 2.5 mg/kg i.m.", "experimental": "Adult male Sprague-Dawley rats provided by Janvier Breeding Center (Le Genest-St-lsle, France) were housed under controlled, uncrowded standard conditions at 20-22° C. (light/dark cycle, 7.00 a.m.-7.00 p.m. lights on), with food and water available ad libitum. All animal experimentation was performed in accordance with the rules of the European Communities Council Directive of Nov. 24, 1986 (86/609/EEC), and the French Department of Agriculture (License N^o 67-97)."}, "[5]": {"tested_on": "lithium-pilocarpine model of temporal lobe epilepsy in the rat", "test": "Latency to and frequency of spontaneous seizures, video recording (Example 2)", "type": "in vivo, Sprague-Dawley rats", "settings": "DZP 2.5 mg/kg i.m.", "experimental": "The effects of DZP and the 4 doses of TC on epileptogenesis were investigated by daily video recording of the animals for 10 h per day. Video recording was performed for 4 weeks during which the occurrence of the first seizure was noted as well as the total number of seizures over the whole period. Animals were then taken off the video recording system and kept for 4 additional weeks in our animal facilities before they were sacrificed after a total period of 8 weeks of epilepsy."}, "[6]": {"tested_on": "lithium-pilocarpine model of temporal lobe epilepsy in the rat", "test": "Quantification of cell densities (neuronal counting) 14 days after Li-pilo SE (Example 2)", "settings": "for number of neuronal cell bodies: DZP 2.5 mg/kg i.m., 14 days after li-pilo SE", "protocol": "All rats received lithium chloride (3 meq/kg, i.p., Sigma, St Louis, Mo., U.S.A.) and about 20 h later, all animals received also methylscopolamine bromide (1 mg/kg, s.c., Sigma) that was administered to limit the peripheral effects of the convulsant. […] The effects of increasing doses of TC were studied in 5 groups of rats. […] The control group received vehicle instead of pilocarpine and TC.\nFor neuronal counting, animals were deeply anesthetized with 1.8 g/kg pentobarbital (Dolethal®, Vétoquinol, Lure, France). Brains were then removed and frozen. Serial 20 μm slices were cut in a cryostat, air-dried during several days before thionine staining. […] The grid of counting was placed on a well defined area of the cerebral structure of interest and counting was carried out with a microscopic enlargement of 200- or 400-fold defined for each single cerebral structure. Cell counts were performed twice on each side of three adjacent sections for each region by a single observer unaware of the animal's treatment. The number of cells obtained in the 12 counted fields in each cerebral structure was averaged. This procedure was used to minimize the potential errors that could result from double counting leading to overestimation of cell numbers. […] Counts involved only neurons with cell bodies larger than 10 μm. Cells with small cell bodies were considered as glial cells and were not counted.\nFor neuronal damage and epileptogenesis, statistical analysis between groups was performed by means of a one-way analysis of variance followed by a post-hoc Dunnett or Fisher test using the Statistica software."}}, "note": "Values joined by “and” are separate entries in the source; they are usually repeats but may differ in a detail not shown here. Identical values can stand only once.", "data": [{"compound": "CN1C(=O)CN=C(c2ccccc2)c2cc(Cl)ccc21", "note": "[DZP, diazepam]", "values": [{"measurement": "damage compared to saline-saline rats", "setting": "[1]; dentate gyrus granule cell layer", "value": "did not show visible damage"}, {"measurement": "damage compared to saline-saline rats", "setting": "[1]; dorsal entorhinal cortex layer II", "value": 9, "unit": "%"}, {"measurement": "damage compared to saline-saline rats", "setting": "[1]; dorsal entorhinal cortex layers III-IV", "value": 15, "unit": "%"}, {"measurement": "cell loss compared to saline-saline rats", "setting": "[1]; hilus of dentate gyrus", "value": 73, "unit": "%"}, {"measurement": "cell loss compared to saline-saline rats", "setting": "[1]; hippocampus CA1 pyramidal cell layer", "value": "70% and 75%"}, {"measurement": "cell loss compared to saline-saline rats", "setting": "[1]; hippocampus CA3a", "value": 54, "unit": "%"}, {"measurement": "cell loss compared to saline-saline rats", "setting": "[1]; hippocampus CA3b", "value": 31, "unit": "%"}, {"measurement": "cell loss compared to saline-saline rats", "setting": "[1]; lateral thalamic nucleus", "value": 91, "unit": "%"}, {"measurement": "cell loss compared to saline-saline rats", "setting": "[1]; mediodorsal thalamic nucleus", "value": 56, "unit": "%"}, {"measurement": "cell loss compared to saline-saline rats", "setting": "[1]; piriform cortex layer II", "value": 53, "unit": "%"}, {"measurement": "cell loss compared to saline-saline rats", "setting": "[1]; piriform cortex layers III-IV", "value": "total"}, {"measurement": "damage compared to saline-saline rats", "setting": "[1]; ventral entorhinal cortex layer II", "value": "totally preserved"}, {"measurement": "cell loss compared to saline-saline rats", "setting": "[1]; ventral entorhinal cortex layers III-IV", "value": 44, "unit": "%"}, {"measurement": "mean Timm score in the upper blade of the dentate gyrus", "setting": "[2]", "value": "2.8±0.8"}, {"measurement": "EEG by 6-7 h of SE", "setting": "[3]", "value": "spiking activity was still present in the cortex and the hippocampus"}, {"measurement": "mortality over the first 48 h after SE", "setting": "[4]; group devoted to cell counting at 14 days (4/11)", "value": 36, "unit": "%"}, {"measurement": "mortality over the first 48 h after SE", "setting": "[4]; group devoted to latency to SRS and late cell counting (1/14)", "value": 7, "unit": "%"}, {"measurement": "frequency of spontaneous seizures over the four weeks of recording", "setting": "[5]", "value": "tendency to be higher"}, {"measurement": "number of neuronal cell bodies", "setting": "[6]; Amygdala Medial, dorsal anterior", "value": "40.0 ± 2.5"}, {"measurement": "number of neuronal cell bodies", "setting": "[6]; Amygdala Medial, ventral posterior", "value": "21.8 ± 2.4"}, {"measurement": "number of neuronal cell bodies", "setting": "[6]; Cerebral cortex Entorhinal, layer II, dorsal", "value": "23.5 ± 0.7"}, {"measurement": "number of neuronal cell bodies", "setting": "[6]; Cerebral cortex Entorhinal, layer II, ventral", "value": "21.7 ± 1.3"}, {"measurement": "number of neuronal cell bodies", "setting": "[6]; Cerebral cortex Entorhinal, layer III/IV, dorsal", "value": "22.3 ± 0.5"}, {"measurement": "number of neuronal cell bodies", "setting": "[6]; Cerebral cortex Entorhinal, layer III/IV, ventral", "value": "7.7 ± 2.3"}, {"measurement": "number of neuronal cell bodies", "setting": "[6]; Cerebral cortex Piriform, layer II, dorsal", "value": "12.6 ± 4.2"}, {"measurement": "number of neuronal cell bodies", "setting": "[6]; Cerebral cortex Piriform, layer II, ventral", "value": "3.6 ± 0.7"}, {"measurement": "number of neuronal cell bodies", "setting": "[6]; Cerebral cortex Piriform, layer III", "value": "1.2 ± 1.2"}, {"measurement": "neurons surviving", "setting": "[6]; DZP, all parts of the entorhinal cortex (range), 14 days after SE", "value": "27-81%"}, {"measurement": "neuronal loss (drop out) compared to control rats", "setting": "[6]; DZP, amygdala basolateral nucleus, 14 days after SE", "value": 73, "unit": "%"}, {"measurement": "neuronal damage compared to control rats", "setting": "[6]; DZP, amygdala central nucleus, 14 days after SE", "value": "no neuronal damage"}, {"measurement": "neuronal loss (drop out) compared to control rats", "setting": "[6]; DZP, amygdala medial dorsal anterior nucleus, 14 days after SE", "value": 53, "unit": "%"}, {"measurement": "neuronal loss compared to control rats", "setting": "[6]; DZP, amygdala medial ventral posterior nucleus, 14 days after SE", "value": 38, "unit": "%"}, {"measurement": "neuronal damage compared to control rats", "setting": "[6]; DZP, dentate gyrus granule cell layer, 14 days after SE", "value": "did not show overt damage"}, {"measurement": "neuronal damage compared to control saline-treated rats", "setting": "[6]; DZP, dorsal entorhinal cortex layer II, 14 days after SE", "value": 18, "unit": "%"}, {"measurement": "neuronal damage compared to control saline-treated rats", "setting": "[6]; DZP, dorsal entorhinal cortex layers III-IV, 14 days after SE", "value": 24, "unit": "%"}, {"measurement": "neuronal loss compared to control rats", "setting": "[6]; DZP, hilus of dentate gyrus, 14 days after SE", "value": "65% and 66%"}, {"measurement": "neuronal loss (drop out) compared to control rats", "setting": "[6]; DZP, hippocampus CA1 pyramidal cell layer, 14 days after SE", "value": 85, "unit": "%"}, {"measurement": "neuronal loss compared to control rats", "setting": "[6]; DZP, hippocampus CA3 region, 14 days after SE", "value": 40, "unit": "%"}, {"measurement": "neuronal loss compared to control saline-treated rats", "setting": "[6]; DZP, piriform cortex dorsal layer II, 14 days after SE", "value": 66, "unit": "%"}, {"measurement": "neuronal loss compared to control saline-treated rats", "setting": "[6]; DZP, piriform cortex layer III, 14 days after SE", "value": 94, "unit": "%"}, {"measurement": "neuronal loss compared to control saline-treated rats", "setting": "[6]; DZP, piriform cortex ventral layer II, 14 days after SE", "value": 89, "unit": "%"}, {"measurement": "neuronal loss (drop out) compared to control rats", "setting": "[6]; DZP, thalamus central medial nucleus, 14 days after SE", "value": 34, "unit": "%"}, {"measurement": "neuronal loss (drop out) compared to control rats", "setting": "[6]; DZP, thalamus dorsolateral medial dorsal nucleus, 14 days after SE", "value": 40, "unit": "%"}, {"measurement": "neuronal loss (drop out) compared to control rats", "setting": "[6]; DZP, thalamus mediodorsal central nucleus, 14 days after SE", "value": 18, "unit": "%"}, {"measurement": "neuronal loss (drop out) compared to control rats", "setting": "[6]; DZP, thalamus mediodorsal lateral nucleus, 14 days after SE", "value": 24, "unit": "%"}, {"measurement": "neuronal loss compared to control rats", "setting": "[6]; DZP, thalamus mediodorsal nucleus, 14 days after SE", "value": 49, "unit": "%"}, {"measurement": "neuronal loss compared to control rats", "setting": "[6]; DZP, thalamus ventral lateral division of the dorsolateral nucleus, 14 days after SE", "value": 90, "unit": "%"}, {"measurement": "neuronal damage compared to control saline-treated rats", "setting": "[6]; DZP, ventral entorhinal cortex layer II, 14 days after SE", "value": "22% and 19%"}, {"measurement": "neuronal damage compared to control saline-treated rats", "setting": "[6]; DZP, ventral entorhinal cortex layers III/IV, 14 days after SE", "value": "74% and 73%"}, {"measurement": "number of neuronal cell bodies", "setting": "[6]; Hippocampus CA1 area", "value": "10.9 ± 1.9"}, {"measurement": "number of neuronal cell bodies", "setting": "[6]; Hippocampus CA3 area", "value": "31.3 ± 2.9"}, {"measurement": "number of neuronal cell bodies", "setting": "[6]; Hippocampus Hilus", "value": "33.5 ± 3.0"}, {"measurement": "number of neuronal cell bodies", "setting": "[6]; Thalamus Central medial", "value": "74.2 ± 7.4"}, {"measurement": "number of neuronal cell bodies", "setting": "[6]; Thalamus Dorsolateral, medial, dorsal", "value": "61 ± 6.3"}, {"measurement": "number of neuronal cell bodies", "setting": "[6]; Thalamus Dorsolateral, ventral lateral", "value": "9.7 ± 2.5"}, {"measurement": "number of neuronal cell bodies", "setting": "[6]; Thalamus Mediodorsal central", "value": "26.3 ± 1.8"}, {"measurement": "number of neuronal cell bodies", "setting": "[6]; Thalamus Mediodorsal lateral", "value": "19.6 ± 0.8"}, {"measurement": "number of neuronal cell bodies", "setting": "[6]; Thalamus Mediodorsal medial", "value": "16.4 ± 1.9"}]}]}
